From patent publication US12492210B2, “Tricyclic compounds and their use” (HUTCHISON MEDIPHARMA LIMITED, priority 2019, dated 2025)

What was measured:
[1] = biological target: T1, MAPK1(ERK2) enzyme (Homo sapiens, UniProt P28482); test: Z-Lyte Kinase Assay of ERK2; assay type: biochemical; conditions: read-out: Example 18 IC50
T1 construct: purchased Invitrogen PV3313
Experimental: Example 18: Z-Lyte Kinase Assay of ERK2
1. Materials and Reagents:
2. Reaction Steps: Plate Map
3. Solution Preparation • 1) 1.33× Kinase Buffer: Dilute 5× Kinase Buffer to 1.33× with ddH2O • 2) 4× Test Compounds: Serially dilute the test compounds to 4 folds of the concentrations desired, keeping the DMSO concentration at 8%. The final concentrations are 1, 0.33, 0.11, 0.037, 0.012, 0.004, 0.0014, 0.00046 μM, and the final concentration of DMSO is 2%. • 3) Kinase/Peptide Mixture (P/K solution): Prepare Kinase/Peptide Mixture by diluting the kinase to 0.6 μg/ml and the Z-LYTE™ Ser/Thr3 peptide to 4 μM in 1.33× Kinase Buffer. Mix gently by pipetting. • 4) Phospho-peptide Solution (PP solution): Add 0.4 μl of Z-LYTE™ Ser/Thr3 Phospho-peptide to 99.6 μl of 1.33× Kinase Buffer. • 5) ATP Solution: Prepare ATP Solution by diluting the 10 mM of ATP in 1.33× Kinase Buffer to 100 μM. • 6) Development Solution: Dilute Development Reagent A with Development Buffer as 1:1024. 4. Reaction • 1) Kinase reaction (10 μl of Volume) • a. In a 384-well plate, add 2.5 μl of 4× test Cpds to each well except C1, C2, C3 wells Add 2.5 μl of 8% DMSO to C1, C2, C3 wells • b. Put the plate on ice • c. Add 5 μl of P/K mixture to each test Cpd wells and C1, C2 wells • d. Add 5 μl of PP Solution to C3 well • e. Add 2.5 μl of 1.33× kinase buffer to C1 and C3 wells • f. Add 2.5 μl of 4×ATP Solution to each test Cpd wells and C2 well, respectively. Shake the plate for 30 Sec and centrifuge (1500 rpm, 1 min) • g. Seal the plate to protect from the light and incubate the plate for 1 hour at RT (25-30° C.) • 2) Development reaction • a. Add 5 μl of the Development solution to all wells • b. Shake the plate for 30 sec and centrifuge (1500 rpm, 1 min) • c. Seal the plate to protect from the light and incubate the plate for 1 hour at RT (25-30° C.) • 3) Stop and read • a. Add 5 μl of the Stop reagent to all wells • b. Shake the plate for 30 sec and centrifuge (1500 rpm, 1 min) • c. Measure the value of coumarin (Ex400 nm, Em445 nm) and fluorescein (Ex400 nm, Em520 nm), respectively. 5. Data Analysis Emission Ratio(ER)=Coumarin Emission (445 nm)/Fluorescein Emission (520 nm) % Phosphorylation=1−[ER×C3520nm−C3445nm]/[(C1445nm−C3445nm)+ER×(C3520nm−C1520nm)] Inhibition rate (IR)=1−% Photest Cpd% PhoC2 6. IC50 Value: determine IC50 with add-in software for Microsoft Excel, XLfit™ (version 2.0) from ID Business Solutions (Guildford, UK)

[2] = test system: p-RSK (Thr359) in colo205 cells; test: p-RSK (Thr359) Acumen Assay in Colo205; assay type: cell-based; conditions: Homo sapiens, COLO 205, 1 hour compound incubation, read-out: Example 19 IC50
Experimental: Example 19: p-RSK (Thr359) Acumen Assay in Colo205
• Phospho-p90RSK (Thr359) (D1E9) Rabbit mAb: cell signal, #8753 • Alexa Fluor® 488 donkey anti-rabbit IgG: invitrogen, #A-21206 • Propidium Iodide: Sigma, #p4170 • 4% Paraformaldehyde: SCRC, #DF021 • 10% Triton X-100: PIERCE, #28314 • 96-well plate (black with clear bottom): BD, #354640 • Acumen® eX3 (A Multilaser Microplate Cytometer For Enhanced High Content Screening): TTP LabTech 3. Acumen Assay Protocol • Seed 4000 cells in 100 μl 10% FBS/well into 96-well plate, incubate at 37° C., 5% CO2, overnight. • Dilute the compound to 3, 1, 0.33, 0.11, 0.037, 0.012, 0.004, 0.001 μM, keeping the DMSO concentration at 5%. Add 10 μl of diluted compound per well and incubate at 37° C., 5% CO2 for 1 hour. • Add 100 μl of 4% pre-warmed Paraformaldehyde (2% final), and incubate for 45 min at room temperature. • Remove paraformaldehyde solutions. Add 100 μl of ice-cold 0.1% Triton to fixed cells at room temperature for 30 min. • Wash twice with 150 μl PBS and incubate with 100 μl blocking buffer (1% BSA, in PBS) for 2˜3 hours at room temperature, seal the plate. • Wash once with PBS and incubate with 35 μl p-RSK (Thr359) (1:1000 dilution) overnight at 4° C. Seal the plate. • Wash twice with PBS and incubate for 1.5 hours at room temperature with 35 μl of Alexa Fluor® 488 donkey anti-rabbit IgG at a 1:1,000 dilution in antibody dilution buffer (0.1% BSA, in PBS). Cover plate in foil to keep out of light. • Wash twice with 150 μl PBS. Add 35 μl of 1.5 μM Propidium Iodide stock to each well to determine cell number, seal the plate. • Incubate at room temperature for 30 min. Load the plate into the Acumen Explorer and scan with the appropriate instrument settings. 4. Data Analysis
[formula] Note: • Percentagecompound well represents the positive percentage of cells treated by compound. • Percentagemin well represents the positive percentage of cells treated with 3 uM GDC0994. • Percentagemax well represents the positive percentage of cells without compounds treatment. 5. IC50 Value: determine IC50 with add-in software for Microsoft Excel, XLfit™ (version 2.0) from ID Business Solutions (Guildford, UK)

T1 sequence (P28482 whole entry): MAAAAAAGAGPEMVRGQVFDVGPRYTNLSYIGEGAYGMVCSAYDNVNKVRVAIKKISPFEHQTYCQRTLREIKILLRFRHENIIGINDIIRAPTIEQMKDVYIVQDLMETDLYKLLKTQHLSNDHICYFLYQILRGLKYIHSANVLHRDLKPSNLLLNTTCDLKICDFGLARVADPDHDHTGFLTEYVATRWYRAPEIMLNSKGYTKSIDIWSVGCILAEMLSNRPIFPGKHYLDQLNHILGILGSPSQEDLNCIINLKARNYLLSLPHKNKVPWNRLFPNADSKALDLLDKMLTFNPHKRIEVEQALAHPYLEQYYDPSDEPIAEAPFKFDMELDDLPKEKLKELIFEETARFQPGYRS

Row | Structure (SMILES) | IC50 [1] | IC50 [2]
1 | Cc1cnc(Nc2ccnn2C)cc1-c1cc2n(c1)CCCn1c-2nnc1C1(C(F)(F)F)CCC1 [Compound 237] | ≤ 5 nM | ≤ 100 nM
2 | Cn1nccc1Nc1cc(-c2cc3n(c2)CCCn2c-3nnc2C(F)(F)c2ccccc2Cl)c(Cl)cn1 [Compound 35] | > 10 nM | ≤ 100 nM
3 | Cc1cnc(Nc2ccnn2C)cc1-c1cc2n(c1)CC(C)(F)Cn1c-2nnc1C(F)(F)C(F)F (stereo not drawn) [Compound 72] | 5 to 10 nM | ≤ 100 nM
4 | Cc1cnc(Nc2ccnn2C)cc1-c1cc2n(c1)C[C@H](CF)n1c-2nnc1C(F)(F)n1nccc1Cl [Compound 151] | ≤ 5 nM | ≤ 100 nM
5 | Cn1nccc1Nc1cc(-c2cc3n(c2)CC2(CCC2)n2c(CCC(F)(F)F)nnc2-3)c(Cl)cn1 [Compound 253] | ≤ 5 nM | ≤ 100 nM
6 | COC[C@H]1Cn2cc(-c3nc(Nc4ccnn4C)ncc3C)nc2-c2nnc(C(F)(F)c3ccccc3Cl)n21 [Compound 220, (R)-4-(3-((2-chlorophenyl)difluoromethyl)-5-(methoxymethyl)-5,6-dihydroimidazo[1,2-a][1,2,4]triazolo[3,4-c]pyrazin-9-yl)-5-methyl-N-(1-methyl-1H-pyrazol-5-yl)pyrimidin-2-amine] | ≤ 5 nM | ≤ 100 nM
7 | Cn1nccc1Nc1cc(-c2cc3n(c2)CC2(CC2)n2c-3nnc2C2(C(F)(F)F)CCC2)c(Cl)cn1 [Compound 259] | 5 to 10 nM | ≤ 100 nM
8 | Cc1cnc(Nc2ccnn2C)cc1-c1cc2n(c1)C[C@H](CF)n1c-2nnc1C(F)(F)c1ccccc1F [Compound 126] | 5 to 10 nM | ≤ 100 nM
9 | Cn1nccc1Nc1cc(-c2cc3n(c2)CC(F)(F)Cn2c-3nnc2C2(C#N)CCC2)c(Cl)cn1 [Compound 74] | ≤ 5 nM | ≤ 100 nM
10 | Cc1cnc(Nc2ccnn2C)nc1-c1cc2c3nnc(Cc4cccc(F)c4)n3ccn2c1 [Compound 283] | ≤ 5 nM | ≤ 100 nM
11 | C[C@H]1Cn2cc(-c3ccnc(Nc4ccnn4C)n3)cc2-c2nnc(C(F)(F)c3ccccc3F)n21 [Compound 71] | ≤ 5 nM | ≤ 100 nM
12 | Cc1cnc(Nc2ccnn2C)nc1-c1cc2n(c1)CCCn1c(COc3ccccc3F)nnc1-2 [Compound 17] | ≤ 5 nM | ≤ 100 nM
13 | Cc1cnc(Nc2ccnn2C)nc1-c1cc2n(c1)CCCn1c-2nnc1C1(C(F)(F)F)CCC1 [Compound 12] | ≤ 5 nM | ≤ 100 nM
14 | C[C@H]1Cn2cc(-c3ccnc(Nc4ccnn4C(F)F)n3)nc2-c2nnc(C(F)(F)c3ccccc3Cl)n21 [Compound 227] | ≤ 5 nM | ≤ 100 nM
15 | Cc1cnc(Nc2ccnn2C)nc1-c1cc2n(c1)CC(F)(F)Cn1c-2nnc1C1(C(F)(F)F)CCC1 [Compound 264] | ≤ 5 nM | > 100 nM
16 | Cc1cnc(Nc2ccnn2C)cc1-c1cc2n(c1)C[C@H](CF)n1c-2nnc1C(F)(F)c1ccc(F)cc1F [Compound 184] | 5 to 10 nM | ≤ 100 nM
17 | C[C@@H](CO)Nc1cc(-c2cc3n(c2)CCCn2c-3nnc2C2(C(F)(F)F)CCC2)c(Cl)cn1 [Compound 229, (S)-2-((5-chloro-4-(3-(1-(trifluoromethyl)cyclobutyl)-6,7-dihydro-5H-pyrrolo[1,2-a][1,2,4]triazolo[3,4-c][1,4]diazepin-10-yl)pyridin-2-yl)amino)propan-1-ol] | ≤ 5 nM | ≤ 100 nM
18 | Cn1nccc1Nc1nccc(-c2cc3c4nnc(COc5ccccc5F)n4ccn3c2)n1 [Compound 2] | ≤ 5 nM | ≤ 100 nM
19 | Cn1nccc1Nc1cc(-c2cc3n(c2)C[C@H](CF)n2c-3nnc2C(F)(F)c2ccccc2Cl)ccn1 [Compound 138] | 5 to 10 nM | ≤ 100 nM
20 | Cc1cnc(Nc2ccnn2C)cc1-c1cc2n(c1)CC(C)(C)n1c-2nnc1C(F)(F)C(F)F [Compound 234] | ≤ 5 nM | > 100 nM
21 | Cn1nccc1Nc1ncc(Cl)c(-c2cc3c4nnc(CC(F)(F)F)n4ccn3c2)n1 [Compound 212] | ≤ 5 nM | ≤ 100 nM
22 | Cn1nccc1Nc1cc(-c2cc3n(c2)C[C@H](CF)n2c-3nnc2C(F)(F)c2ncccc2Cl)c(Cl)cn1 [Compound 207] | ≤ 5 nM | ≤ 100 nM
23 | Cn1nccc1Nc1cc(-c2cc3n(c2)CCCn2c-3nnc2N2CCc3ccccc32)c(Cl)cn1 [Compound 53, 5-Chloro-4-(3-(indolin-1-yl)-6,7-dihydro-5H-pyrrolo[1,2-a][1,2,4]triazolo[3,4-c][1,4]diazepin-10-yl)-N-(1-methyl-1H-pyrazol-5-yl)pyridin-2-amine] | 5 to 10 nM | > 100 nM
24 | Cc1cnc(Nc2ccnn2C)nc1-c1cc2c3nnc(C4(C(F)(F)F)CCC4)n3ccn2c1 [Compound 231] | ≤ 5 nM | ≤ 100 nM
25 | Cn1nccc1Nc1cc(-c2cc3n(c2)CCCn2c-3nnc2C(O)c2ccccc2)c(Cl)cn1 (stereo not drawn) [Compound 18] | 5 to 10 nM | > 100 nM
26 | Cn1nccc1Nc1cc(-c2cc3n(c2)C[C@H](F)Cn2c-3nnc2C(F)(F)n2cc(F)cn2)c(Cl)cn1 [Compound 162] | 5 to 10 nM | ≤ 100 nM
27 | Cn1nccc1Nc1cc(-c2cc3n(c2)C[C@H](CF)n2c-3nnc2C(F)(F)c2cccc(F)c2)c(Cl)cn1 [Compound 191] | 5 to 10 nM | > 100 nM
28 | Cn1nccc1Nc1cc(-c2cc3n(c2)CC(F)(F)Cn2c(Cn4cccc4C#N)nnc2-3)c(Cl)cn1 [Compound 217, 1-((10-(5-chloro-2-((1-methyl-1H-pyrazol-5-yl)amino)pyridin-4-yl)-6,6-difluoro-6,7-dihydro-5H-pyrrolo[1,2-a][1,2,4]triazolo[3,4-c][1,4]diazepin-3-yl)methyl)-1H-pyrrole-2-carbonitrile] | ≤ 5 nM | ≤ 100 nM
29 | C[C@H]1Cn2cc(-c3cc(Nc4ccnn4C)ncc3F)cc2-c2nnc(C(F)(F)n3cc(Cl)cn3)n21 [Compound 109] | ≤ 5 nM | > 100 nM
30 | Cc1ncccc1C(F)(F)c1nnc2n1[C@@H](CF)Cn1cc(-c3cc(Nc4ccnn4C)ncc3Cl)cc1-2 [Compound 177] | > 10 nM | ≤ 100 nM
